Results: publication PMC10787790, “Isatin-tethered halogen-containing acylhydrazone derivatives as monoamine oxidase inhibitor with neuroprotective effect” (Scientific Reports, 2024)

Assays:
MAO-A [1] = target: T1, MAO-A (Homo sapiens, UniProt P21397); experiment: MAO-A inhibition assay (continuous, kynuramine); conditions: for remaining activity at 10 µM: read-out: Residual activity at 10 µM (%) MAO-A
T1 sequence (P21397 1-527): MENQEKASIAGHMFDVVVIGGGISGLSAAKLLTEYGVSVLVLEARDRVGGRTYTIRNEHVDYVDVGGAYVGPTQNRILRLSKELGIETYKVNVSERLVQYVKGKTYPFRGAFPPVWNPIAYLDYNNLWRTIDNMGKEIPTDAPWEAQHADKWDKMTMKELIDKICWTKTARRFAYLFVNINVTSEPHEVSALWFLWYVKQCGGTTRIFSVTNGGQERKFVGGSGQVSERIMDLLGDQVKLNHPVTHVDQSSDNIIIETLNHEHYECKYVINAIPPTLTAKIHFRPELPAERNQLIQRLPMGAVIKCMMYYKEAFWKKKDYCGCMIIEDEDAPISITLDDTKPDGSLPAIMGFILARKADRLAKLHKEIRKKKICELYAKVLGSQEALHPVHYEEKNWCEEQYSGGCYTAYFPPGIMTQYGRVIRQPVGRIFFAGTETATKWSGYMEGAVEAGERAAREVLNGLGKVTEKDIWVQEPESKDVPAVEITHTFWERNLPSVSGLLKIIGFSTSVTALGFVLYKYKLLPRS
Method: (§1) MAO-A and MAO-B activities were determined using 0.06 mM kynuramine and 0.3 mM benzylamine, respectively[39]. […] Concentrations of the substrates used were around 2.0 times of their Km values for the enzyme assay. The absorbance was measured using the continuous assay method described previously[40].
(§2) The selectivity index (SI) values of the compounds were calculated as follows: (IC50 of MAO-A)/(IC50 of MAO-B)[42].

MAO-B = target: T2, MAO-B (Homo sapiens, UniProt P27338); experiment: MAO-B inhibition assay (continuous, benzylamine); conditions: for remaining activity at 10 µM: read-out: Residual activity at 10 µM (%) MAO-B; for SI (selectivity index): (IC50 of MAO-A)/(IC50 of MAO-B), MAO-B compared to MAO-A
T2 sequence (P27338 1-520): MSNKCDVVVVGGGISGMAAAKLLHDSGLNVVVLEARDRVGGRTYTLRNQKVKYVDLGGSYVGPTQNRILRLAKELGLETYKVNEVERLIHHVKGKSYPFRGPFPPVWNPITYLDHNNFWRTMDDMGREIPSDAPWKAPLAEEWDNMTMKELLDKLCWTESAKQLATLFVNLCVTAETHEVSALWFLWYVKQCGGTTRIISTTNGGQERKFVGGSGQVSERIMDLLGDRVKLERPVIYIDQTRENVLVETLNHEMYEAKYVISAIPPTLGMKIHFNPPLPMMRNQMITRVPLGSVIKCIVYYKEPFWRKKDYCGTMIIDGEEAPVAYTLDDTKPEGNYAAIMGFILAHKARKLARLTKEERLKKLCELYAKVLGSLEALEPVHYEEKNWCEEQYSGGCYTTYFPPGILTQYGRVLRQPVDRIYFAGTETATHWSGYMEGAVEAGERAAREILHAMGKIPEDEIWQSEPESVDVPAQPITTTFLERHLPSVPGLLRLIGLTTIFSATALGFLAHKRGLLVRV
Method: as §1, §2

[2] = Parallel artificial membrane permeability assay (PAMPA), BBB; assay type: in vitro ADME; conditions: for Experimental Pe: pH 7.4; for Papp: pH 7.4, read-out: Experimental Pe
Method: The blood–brain barrier (BBB) permeation abilities of the four lead molecules were analyzed using the PAMPA method[44],[45]. The detailed procedure is explained in the Supplementary Data.
Using a microtiter plate with 96 wells and a Millipore filter plate with 96 wells (ipvh, 125 μm thick filter, 0.45 μm pore), which was then saturated with 0.1 mL of n-dodecane, a "sandwich" structure was created in PAMPA. Stock solutions of drug samples in DMSO were created at a 10 mM concentration. The stock solution was diluted in buffer at pH 7.4 before being added to a 96-well filter plate in order to achieve a final sample concentration (0.01, 0.1, and 1 mM) and keep the DMSO concentration at 1% (v/v). The final dilutions were divided into 270 μL for the donor wells and 200 μL of pH 7.4 buffer for the acceptor well. The donor plate was placed on the top of the acceptor filter plate to form a sandwich (comprising of a synthetic lipid membrane in the center, an aqueous receiver on […], and an aqueous donor carrying an analyte on the bottom.). The test substance diffuses from the donor well across the lipid membrane and into the acceptor well. The sandwich is said to have been intact when the penetration occurred. The drug concentration in the reference, donor, and receiver wells was measured using UV spectroscopy. The rate of penetration is calculated using the following expression.
Log Pe = -ln [1-CA /Equilibrium]/A× (1/VD + 1/VA) × t

TNF-α = TNF-α expression in LPS-induced SH-SY5Y cells; assay type: cell-based, human; conditions: LPS 1 µg/mL 2 h, compound 24 h, SH-SY5Y
IL-6 = IL-6 expression in LPS-induced SH-SY5Y cells; assay type: cell-based, human; conditions: LPS 1 µg/mL 2 h, compound 24 h, SH-SY5Y
ROS = ROS assay (DCF) in LPS-treated SH-SY5Y cells; assay type: cell-based, human
Method: (§3) Subcultures were performed every two days.
The OxiSelect Intracellular ROS Assay Kit (Cell Biolabs Inc., San Diego, CA, USA) was used to quantify the levels of the fluorescent probe 20,70-dichlorodihydrofluorescin diacetate (DCFH-DA).

CAT = experiment: Catalase (CAT) activity in LPS-induced SH-SY5Y cells; assay type: cell-based, human; conditions: 10 µM/mL
Method: as §3
CAT activity was determined according to Aebi[50]. A human CAT ELISA kit was purchased commercially (KrishGen Biosystems). Following treatment, the adherent cells were scraped off, suspended in cold PBS, sonicated, and placed on ice. The medium was then removed from each well. The 3 mL CAT assay combination comprised of extract (0.05 mL), phosphate buffer (1.5 mL, 100 mM buffer, pH 7.0), H2O2 (0.5 mL), and distilled water (0.95 mL). The absorbance decreased at 450 nm. CAT activity was reported in terms of ng/mL of H2O2 oxidized per min per gram[46]–[49].

GPx = experiment: Glutathione peroxidase (GPx) activity in LPS-induced SH-SY5Y cells; assay type: cell-based, human; conditions: 10 µM/mL
Excerpt: A GPx assay kit (KrishGen Biosystems) was used to evaluate the GPx activity. The kit uses a colorimetric assay to determine the quantity of GPx. Glutathione reductase (GR) mediates GPx activity Oxidized glutathione (GSSG) is produced via hydroperoxide reduction by GPx. This glutathione is recycled back to its reduced state by GR and NADPH. The NADPH to NADP + oxidation was accompanied by a decrease in absorbance at 450 nm (A450). When GPx activity was rate-limiting, the rate of decline in A450 was directly correlated with GPx activity. Following treatment, adherent cells were removed from the wells, suspended in cold PBS, sonicated, and frozen. In accordance with the ELISA kit’s instructions, the lysed cell supernatant, or standard, was applied to all 96 wells of a plate together with a diluted radical detector to assay the activity of GPx. A microplate reader was used to measure the absorbance of the wells after 5 min[46]–[49]. Results were obtained in ng/mL.

SOD = experiment: Superoxide dismutase (SOD) activity in LPS-induced SH-SY5Y cells; assay type: cell-based, human; conditions: 10 µM/mL
Method: Using a superoxide dismutase assay kit (KrishGen Biosystems, India), which measures the concentration of formazan crystals using a colorimetric assay, SOD activity was determined. In this test, a tetrazolium salt was used to detect the superoxide radicals produced by xanthine oxidase and hypoxanthine. After treatment, the medium was removed, centrifuged at 2000 rpm for 5 min at room temperature, and placed on ice. A diluted radical detector and lysed cell supernatant or a standard were applied to each well of a 96-well plate to evaluate SOD activity using an ELISA kit, according to the manufacturer’s instructions. The absorbance of the wells was then determined after 5 min at a wavelength of 450 nm using a microplate reader (Safire2, Tecan Group Ltd., Maennedorf, Switzerland).

MAO-A [3] = target: T1, MAO-A; experiment: Reversibility study by dialysis, MAO-A
Method: Reversibility test was performed by using Dialyzer DiaEasy™ (6–8 kDa, BioVision, St. Grove, MA, USA).

NF-kB = NF-kB expression in LPS-induced SH-SY5Y cells
MAO-A [4] = target: T1, MAO-A; experiment: Enzyme kinetics, Lineweaver-Burk and secondary plots, MAO-A
Method: Enzyme inhibition patterns and Ki values were determined by comparing Lineweaver–Burk (LB) plots and their secondary plots, respectively[40].

Structure (SMILES)	IC50 (MAO-A [1]) [µM]	remaining activity at 10 µM (MAO-A [1]) [%]	IC50 (MAO-B) [µM]	remaining activity at 10 µM (MAO-B) [%]	SI (selectivity index) (MAO-B)	Prediction (CNS permeation class) [2]	further results
O=C1Nc2ccc(F)cc2/C1=N/NC(=O)c1ccccc1 [IS9]	> 40	67.4 ± 1	9.09 ± 1.28	45.6 ± 6.28			
O=C1Nc2ccc(F)cc2/C1=N/NC(=O)c1ccc(Cl)cc1 [IS10]	18.3 ± 0.729	54.1 ± 0.78	3.99 ± 0.472	42.6 ± 0.82	4.58		
O=C1Nc2ccc(F)cc2/C1=N/NC(=O)c1ccc(Br)cc1 [IS11]	13.7 ± 0.396	43.56 ± 0.42	10.6 ± 0.256	53.2 ± 2.6	1.30		
O=C1Nc2ccc(F)cc2/C1=N/NC(=O)c1ccc(F)cc1 [IS12]	4.29 ± 0.552	36.6 ± 1.6	7.1 ± 0.956	44.3 ± 4.48	0.60		
O=C1Nc2ccc(Cl)cc2/C1=N/NC(=O)c1ccccc1 [IS13]						CNS+ (Pe (10^−6 cm/s) > 4.00: CNS + (high permeation))	CNS/BBB permeability in words [2]: high permeability and CNS bioavailability; Experimental Pe [2]: > 4 ×10⁻⁶ cm/s; Papp [2]: 4.66 ± 0.18 ×10⁻⁶ cm/s
O=C1Nc2ccc(Cl)cc2/C1=N/NC(=O)c1ccc(Cl)cc1 [IS14]	11.3 ± 0.414	53.1 ± 0.91	0.234 ± 0.008	23 ± 2.48	48.15		
O=C1Nc2ccc(Cl)cc2/C1=N/NC(=O)c1ccc(Br)cc1 [IS15]	1.85 ± 0.085	34.7 ± 0.71	0.337 ± 0.007	12.5 ± 3.64	5.50	CNS+ (Pe (10^−6 cm/s) > 4.00: CNS + (high permeation))	CNS/BBB permeability in words [2]: high permeability and CNS bioavailability; Experimental Pe [2]: > 4 ×10⁻⁶ cm/s; Papp [2]: 4.39 ± 0.3 ×10⁻⁶ cm/s; TNF-alpha level vs LPS-treated group (TNF-α): significantly (p < 0.0001) reduced; IL-6 level vs LPS-treated group (IL-6): significantly (p < 0.0001) reduced; DCF intensity decrease at 10 µM (ROS; 10 µM/mL (10 µM), vs LPS-induced cells): effective DCF intensity decrease; DCF expression (ROS) vs cells treated with LPS alone (ROS; LPS-induced SH-SY5Y): significantly inhibited (p < 0.0001); CAT (cellular anti-oxidant enzyme) effect (CAT): enhancing the enzyme activity; GPx (cellular anti-oxidant enzyme) effect (GPx): enhancing the enzyme activity; SOD (cellular anti-oxidant enzyme) effect (SOD): enhancing the enzyme activity; Reversibility of MAO-A inhibition (MAO-A [3]): reversible-type inhibitors; NF-kB level vs LPS-treated group (NF-kB; LPS 1 µg/mL 2 h, compound 24 h, SH-SY5Y): significantly (p < 0.0001) reduced; NF-kB expression compared to IS6 and IS7 (NF-kB; LPS-treated cell lines): significantly lower; Fold higher MAO-A inhibition than IS7 (MAO-A [1]; relative to IS7): 10.35 times; Fold higher MAO-A inhibition than IS13 (MAO-A [1]; relative to IS13): 11.94 times; Ki (MAO-A [4]): 1 ± 0.171 µM; Type of MAO-A inhibition (MAO-A [4]; LB plot): competitive
O=C1Nc2ccc(Cl)cc2/C1=N/NC(=O)c1ccc(F)cc1 [IS16]	8.45 ± 0.395	43.7 ± 1.65	3.85 ± 0.392	26.1 ± 4.39	2.20		
C#CCN(C)[C@H](C)Cc1ccccc1 [Selegiline, reference compound]						CNS+ (Pe (10^−6 cm/s) > 4.00: CNS + (high permeation))	
